According to the NIST ThermoML archive (doi:10.1021/je0601208):
± gives the expanded uncertainty stated by the source.

Tests used:
[1] = refractive index (Na D-line) (dimensionless); conditions: 101.33 kPa, Liquid, Standard Abbe refractometry
[2] = for mass density: 101.33 kPa, Liquid
[3] = xn = mol fraction of the nth substance listed; conditions: x2 = 0
[4] = refractive index (Na D-line) (dimensionless); xn = mol fraction of the nth substance listed; conditions: 100.5 kPa, Liquid, Standard Abbe refractometry, x2 = 0

| refractive index ([1]; 288.15 K) | refractive index ([1]; 298.15 K) | refractive index ([1]; 308.15 K) | refractive index ([1]; 318.15 K) | surface tension liquid-gas ([2]; 288.15 K) | surface tension liquid-gas ([2]; 298.15 K) | mass density ([2]; 298.15 K) | surface tension liquid-gas ([2]; 308.15 K) | surface tension liquid-gas ([2]; 318.15 K) | Compound | surface tension liquid-gas ([3]; 288.15 K) | surface tension liquid-gas ([3]; 298.15 K) | surface tension liquid-gas ([3]; 308.15 K) | surface tension liquid-gas ([3]; 318.15 K) | refractive index ([4]; 288.15 K) | refractive index ([4]; 298.15 K) | refractive index ([4]; 308.15 K) | refractive index ([4]; 318.15 K) |
| --- | --- | --- | --- | --- | --- | --- | --- | --- | --- | --- | --- | --- | --- | --- | --- | --- | --- |
| 1.41259 ± 0.00034 | 1.40815 ± 0.00034 | 1.40374 ± 0.00034 | 1.39927 ± 0.00034 | 25.7 ± 0.6 mN/m | 24.7 ± 0.6 mN/m | 858.69 ± 0.44 kg/m3 | 24 ± 0.6 mN/m | 23.1 ± 0.6 mN/m | CCCC(=O)OCCC(C)C [3-methylbutyl butanoate] |  |  |  |  |  |  |  |  |
| 1.40288 ± 0.00034 | 1.39836 ± 0.00034 | 1.39365 ± 0.00034 | 1.38895 ± 0.00034 | 25.4 ± 0.4 mN/m | 24.3 ± 0.4 mN/m | 867.91 ± 0.45 kg/m3 | 23.4 ± 0.4 mN/m | 22.4 ± 0.4 mN/m | CC(=O)OCCC(C)C [3-methylbutyl ethanoate] |  |  |  |  |  |  |  |  |
|  |  |  |  |  |  |  |  |  | CCO [ethanol] + CC(=O)OCCC(C)C | 23 ± 0.4 mN/m | 22.3 ± 0.4 mN/m | 21.5 ± 0.4 mN/m | 20.6 ± 0.4 mN/m | 1.36333 ± 0.00031 | 1.35941 ± 0.00031 | 1.35531 ± 0.00031 | 1.35148 ± 0.00031 |
|  |  |  |  |  |  |  |  |  | CCO [ethanol] + CCCC(=O)OCCC(C)C | 23 ± 0.6 mN/m | 22.3 ± 0.6 mN/m | 21.5 ± 0.6 mN/m | 20.6 ± 0.6 mN/m | 1.36333 ± 0.00031 | 1.35941 ± 0.00031 | 1.35531 ± 0.00031 | 1.35148 ± 0.00031 |
|  |  |  |  |  |  |  |  |  | CCO [ethanol] + CCCCCC(=O)OCC | 23 ± 0.6 mN/m | 22.3 ± 0.6 mN/m | 21.5 ± 0.6 mN/m | 20.6 ± 0.6 mN/m | 1.36333 ± 0.00031 | 1.35941 ± 0.00031 | 1.35531 ± 0.00031 | 1.35148 ± 0.00031 |
|  |  |  |  |  |  |  |  |  | CCO [ethanol] + CCCCCCCC(=O)OCC | 23 ± 0.6 mN/m | 22.3 ± 0.6 mN/m | 21.5 ± 0.6 mN/m | 20.6 ± 0.6 mN/m | 1.36333 ± 0.00031 | 1.35941 ± 0.00031 | 1.35531 ± 0.00031 | 1.35148 ± 0.00031 |
|  |  |  |  |  |  |  |  |  | CCO [ethanol] + CCOC(=O)Cc1ccccc1 | 23 ± 0.6 mN/m | 22.3 ± 0.6 mN/m | 21.5 ± 0.6 mN/m | 20.6 ± 0.6 mN/m | 1.36333 ± 0.00031 | 1.35941 ± 0.00031 | 1.35531 ± 0.00031 | 1.35148 ± 0.00031 |
|  |  |  |  |  |  |  |  |  | CCO [ethanol] + CCOC(=O)c1ccccc1 | 23 ± 0.6 mN/m | 22.3 ± 0.6 mN/m | 21.5 ± 0.6 mN/m | 20.6 ± 0.6 mN/m | 1.36333 ± 0.00031 | 1.35941 ± 0.00031 | 1.35531 ± 0.00031 | 1.35148 ± 0.00031 |
| 1.5076 ± 0.00032 | 1.50328 ± 0.00032 | 1.49863 ± 0.00032 | 1.49391 ± 0.00032 | 35.7 ± 0.7 mN/m | 34.6 ± 0.7 mN/m | 1041.42 ± 0.14 kg/m3 | 33.3 ± 0.7 mN/m | 32.5 ± 0.7 mN/m | CCOC(=O)c1ccccc1 [ethyl benzoate] |  |  |  |  |  |  |  |  |
| 1.4095 ± 0.00032 | 1.40504 ± 0.00032 | 1.40055 ± 0.00032 | 1.39597 ± 0.00032 | 26.4 ± 0.6 mN/m | 25.4 ± 0.6 mN/m | 866.29 ± 0.21 kg/m3 | 24.5 ± 0.6 mN/m | 23.6 ± 0.6 mN/m | CCCCCC(=O)OCC [ethyl hexanoate] |  |  |  |  |  |  |  |  |
| 1.41991 ± 0.00033 | 1.4156 ± 0.00033 | 1.41137 ± 0.00033 | 1.40702 ± 0.00033 | 27.2 ± 0.6 mN/m | 26.4 ± 0.6 mN/m | 862.15 ± 0.41 kg/m3 | 25.5 ± 0.6 mN/m | 24.7 ± 0.6 mN/m | CCCCCCCC(=O)OCC [ethyl octanoate] |  |  |  |  |  |  |  |  |

| Compound | refractive index ([1]; 288.15 K) | refractive index ([1]; 298.15 K) | refractive index ([1]; 308.15 K) | refractive index ([1]; 318.15 K) | surface tension liquid-gas ([2]; 288.15 K) | surface tension liquid-gas ([2]; 298.15 K) | mass density ([2]; 298.15 K) | surface tension liquid-gas ([2]; 308.15 K) | surface tension liquid-gas ([2]; 318.15 K) | surface tension liquid-gas ([3]; 288.15 K) | surface tension liquid-gas ([3]; 298.15 K) | surface tension liquid-gas ([3]; 308.15 K) | surface tension liquid-gas ([3]; 318.15 K) | refractive index ([4]; 288.15 K) | refractive index ([4]; 298.15 K) | refractive index ([4]; 308.15 K) | refractive index ([4]; 318.15 K) |
| --- | --- | --- | --- | --- | --- | --- | --- | --- | --- | --- | --- | --- | --- | --- | --- | --- | --- |
| CCO [ethanol] | 1.36333 ± 0.00031 | 1.35941 ± 0.00031 | 1.35531 ± 0.00031 | 1.35148 ± 0.00031 | 23 ± 0.4 mN/m | 22.3 ± 0.4 mN/m | 785 ± 0.24 kg/m3 | 21.5 ± 0.4 mN/m | 20.6 ± 0.4 mN/m |  |  |  |  |  |  |  |  |
| CCOC(=O)Cc1ccccc1 [ethyl phenylacetate] | 1.49971 ± 0.00034 | 1.49513 ± 0.00034 | 1.49063 ± 0.00034 | 1.48583 ± 0.00034 | 35.9 ± 0.7 mN/m | 34.6 ± 0.7 mN/m | 1026.96 ± 0.35 kg/m3 | 33.5 ± 0.7 mN/m | 32.8 ± 0.7 mN/m |  |  |  |  |  |  |  |  |
